“Also recorded” adds a separate entry of the source.
Experiments:
[1] = Single dose toxicity study in the rat; type: in vivo, Sprague Dawley (SD) rats
Procedure: This study aimed at assessing the toxicity of ^175Lu-PSMA-R2 right after acute intravenous injection of 2 or 4 mg/kg among Sprague Dawley (SD) rats.
Two groups of 30 animals (1:1 male:female ratio) were administered with 2 and 4 mg/kg, respectively. A control group of equal characteristics was treated with the vehicle (Table 5).
Signs of reaction to treatment at all doses were assessed at 30, 120 and 240 min p.i. as well as 24 h later. At Day 2, 10 rats per gender and per group were sacrificed. The remaining 5 animals/gender/group were observed daily over14 days.
Body weight was recorded on the day of treatment group allocation, Day 1 (day of injection), 8 and 15. Food consumption was measured on Day 2 and weekly thereafter. At the end of treatment, urine samples were collected for urinalysis. On Day 2 and 15, blood samples withdrawn at sacrifice were screened for clinical pathologies. After dissection, organs were weighted and tissues were treated for microscopic analyses (over 50 different tissues were analyzed).

[2] = Repeated dose (2 weeks) toxicity and toxicokinetic study in the rat
Procedure: The purpose of this study was to investigate the toxicity of ^175Lu-PSMA-R2 in rats after daily intravenous administration for 2 weeks and recovery from any treatment related effects during a 2-week recovery period (main groups).
The tested doses were 0.13, 0.39 and 1.29 mg/kg/day, that is about 31, 93 and 310 times the PSMA-R2 anticipated human dose.
Each main treatment group consisted of 10 male and 10 female rats. There were additional 5 male and 5 females included to be sacrificed after 2 weeks of recovery in groups 1 and 4. Two satellite groups (low and mid- dose) for toxicokinetics had 9 male and 9 female animals and one group (high dose) included 12 male and 12 female animals. One additional group (control) comprised 3 male and 3 female animals.
In this study, the toxicity and the toxicokinetic profile of ^175Lu-PSMA-R2 were investigated in Sprague Dawley rats after daily intravenous administration for 2 weeks at the dosages of 0.13, 0.39 and 1.29 mg/kg/day.

O=C(O)CCC(NC(=O)NC(CCCCN(Cc1ccc(Br)cc1)C(=O)CCCCCNC(=O)CN1CCN(CC(=O)O)CCN(CC(=O)O)CCN(CC(=O)O)CC1)C(=O)O)C(=O)O.[175Lu] (stereo not shown) [^175Lu-PSMA-R2]
Mortality ([1]; high dose (4 mg/kg), 30 min after dosing, no cause of death established): One death
Clinical signs immediately after dosing ([1]; high dose group, dead animal and 5 other animals): Only decreased activity was noted
Toxicity signs ([1]; single iv 2 and 4 mg/kg): did not induce toxicity signs; also recorded: No signs of toxicity observed
Accumulation after daily administration ([2]; Day 1 to Day 14): No accumulation
Half-life ([2]; both sexes and all dose levels): 24 to 48 min
NOAEL (No Observed Adverse Effect Level) ([2]; daily iv for 2 weeks): 1.29 mg/kg/day
Toxic / treatment-related effects in treated groups compared to controls ([2]; daily iv for 2 weeks): No evidence of treatment-related effects
Bodyweight and food consumption ([2]; rat, in vivo): unaffected by treatment
Clearance, dose dependence ([2]; rat, in vivo): dose-independent
Clinical pathology examination ([2]; rat, in vivo): No findings of toxicological relevance
Daily clinical observation ([2]; rat, in vivo): No signs of toxicological significance
Dose proportionality of exposure ([2]; rat, in vivo): approximately dose proportional
NOAEL as multiple of the foreseen human dose ([2]; rat, in vivo): 310 times
Necropsy, organ weights or histopathological examination ([2]; rat, in vivo): No evidence of treatment-related effects
Ophthalmoscopy examination ([2]; rat, in vivo): No anomalies related to treatment
Toxic / treatment-related effects in treated groups compared to controls ([2]; rat, in vivo, iv): no toxic effects
